Source: patent publication US12410164B2, “Heterocyclic compounds and medical use thereof” (FONDAZIONE TELETHON, priority 2018, dated 2025)

Tested on: G542X-CFTR
Test: HS-YFP assay in null CFBE41o− cells transfected with G542X-CFTR
Type: cell-based
Settings: G418 0.5 mg/ml alone, 24 hr
Procedure: To assess the function and pharmacological sensitivity of G542X-CFTR mutant, inventors used the null version of CFBE41o− cells, i.e. cells with negligible expression of endogenous CFTR and without HS-YFP. Such cells were transiently transfected with the plasmid coding for HS-YFP alone or in combination with: empty plasmid, plasmid coding for wild type CFTR, or plasmid coding for G542X-CFTR. For transfection, cells were seeded in 96-well microplates (30,000 cells/well) in 150 μl of antibiotic-free culture medium. After 24 hours, cells were transfected with the desired plasmids. For each well, 0.2 μg of total plasmid DNA and 0.5 μl of Lipofectamine 2000 (Invitrogen) were first pre-mixed in 50 μl of OPTIMEM (Invitrogen) to generate transfection complexes (60 minutes at room temperature), and then added to the cells. After 24 hour, the complexes were removed by replacement with fresh culture medium. The HS-YFP functional assay was performed after further 24 hours.
To assess the ability of compounds of present invention to improve the rescue of premature stop codon (class I) mutations, we carried out experiments on G542X-CFTR (FIG. 7). Null CFBE41o− cells, devoid of endogenous CFTR expression, were transiently transfected with empty, wild type CFTR or G542X-CFTR plasmids. All cells also received the HS-YFP plasmid to allow functional determination of CFTR-dependent anion transport. […] Where indicated, cells with G542X-CFTR were also treated with G418 (0.5 mg/ml) for 24 hr to induce readthrough of the stop codon mutation, with and without correctors (VX-809 and/or PP028, labeled as VX and PP). […] The activity resulting from wild type CFTR is also shown for comparison.

For `CN[C@@H]1[C@@H](O)[C@@H](O[C@@H]2[C@@H](O)[C@H](O[C@H]3O[C@H]([C@@H](C)O)[C@@H](O)[C@H](O)[C@H]3N)[C@@H](N)C[C@H]2N)OC[C@]1(C)O` [G418, reference compound], the “CFTR activity (QR) in G542X-CFTR cells” value was “modest but significant increase in CFTR activity”.
